According to patent US20230250108A1, “TETRAHYDROISOQUINOLINE COMPOUNDS AND USE THEREOF” (JIANGSU SIMCERE PHARMACEUTICAL CO., LTD., priority 2020, published 2023):
Where a name gives a salt, the structure may show the parent alone. Read-outs that look alike come from different tables or passages of the source.

Columns and labels:
Z-138 cells = assay: Inhibitory activity on tumor cell proliferation (Cell-Titer Glo, 8 days); type: cell-based; conditions: Homo sapiens, 192 h, read-out: Inhibition of cell proliferation Z-138 IC50
Protocol: Materials and cells: Z-138 cells were purchased from ATCC (USA); IMDM medium and penicillin-streptomycin were purchased from Sigma PLC. (USA); horse serum was purchased from Hyclone (USA); 96-well plate was purchased from Corning (USA); and Cell-Titer Glo reagent was purchased from Promega (USA).
(§1) Cell culture: Z-138 cells were cultured in an IMDM culture solution containing 10% Horse serum+1% penicillin−streptomycin at 37° C., 5% CO2. Cells in logarithmic growth phase were suitable for the experiment.
Detection of cell proliferation activity: The inhibitory activities of the compounds on the proliferation of Z-138 cells were detected by using the Cell-Titer Glo reagent. The concentrations of the cells were adjusted, and 180 μL was inoculated in each well of the 96-well plate (500/well) and equilibrated for 10-15 minutes at 37° C., 5% CO2. 20 μL of a culture solution containing the compounds was added into each well with the final concentration reaching 0-300 nM (initial concentration: 300 nM, 3-fold dilution, for 10 points), and the DMSO content was 0.1%. The cell plate was placed at 37° C., 5% CO2 and incubated for 8 days. Culture solution was replaced at day 4: 100 μL of the supernatant was slowly aspirated and 100 μL of a fresh culture solution containing the compounds was provided as a supplement while the concentrations of the compounds were held constant. The cell viability was detected by using the Cell-Titer Glo reagent.

in vitro [1] = conditions: human, hepatocytes
Text: (§2) Experimental materials: Human hepatocytes were purchased from Biopredic; mouse hepatocytes were purchased from BioIVT; acetonitrile and methanol were purchased from Merck & Co., Inc.; AOPI dyes were purchased from Nexcelom; dexamethasone was purchased from NIFDC; DMSO was purchased from Beijing Solarbio Science & Technology Co., Ltd.; DPBS (10×), GlutaMAX™-1 (100×) and recombinant human insulin were purchased form Gibco by Life Technologies; fetal bovine serum was purchased from Corning; formic acid was purchased from DIKMAPURE; Isotonic Percoll was purchased from GE Healthcare; alprazolam was purchased from Supelco; caffeine was purchased from ChromaDex.inc; and HEPES, tolbutamide and Williams' Medium E were purchased from Sigma.
(§3) The powder of a test substance was formulated with DMSO into a stock solution with a high concentration, which was diluted to a working solution of 100 μM with acetonitrile prior to use. The final concentration of the test substance was 1 μM.
(§4) 49.5 mL of Williams'E Medium and 0.5 mL of GlutaMAX were mixed as an incubation media. Hepatocyte thawing media and incubation media were placed in a 37° C. water-bath and pre-heated for at least 15 minutes prior to use. A tube of hepatocytes stored at an ultra-low temperature was taken and the hepatocytes were ensured to be at a frozen state at a low temperature prior to thawing. The hepatocytes were rapidly placed in a 37° C. water-bath and gently shaken until all the ice crystals were dispersed, and then after 70% ethanol was sprayed, the hepatocytes were transferred to a biosafety cabinet. The content of the tube was poured into a centrifugal tube containing 50 mL of thawing media and centrifuged at 100 g for 10 minutes. After centrifugation, the thawing media was aspirated, and a sufficient amount of incubation media was added to obtain a cell suspension with a cell density of about 1.5×10^6 cells/mL. The hepatocytes were counted, and the viable cell density was determined using Cellometer Vision, and the survival rate of the hepatocytes must be higher than 75%. The hepatocyte suspension was diluted by using the incubation media to a viable cell density of 0.5×10^6 viable cells/mL.
(§5) 247.5 μL of viable cell (human hepatocytes or mouse hepatocytes) suspension or media were transferred into a 96-well deep-well plate, and the deep-well plate was placed in a vortex incubator and pre-heated for 10 minutes. Incubation of all the samples was performed in parallel duplicate. Test substance (2.5 μL, 100 μM) was added into each well to start the reaction and the deep-well plate was placed in the vortex incubator again. The samples were incubated, and 25 μL of the suspension was taken at 0, 15, 30, 60, 90 and 120 minutes, respectively. 125 μL of acetonitrile containing internal standard (100 nM alprazolam, 200 nM caffeine, and 100 nM tolbutamide) was added to terminate the reaction. The mixture was vortexed for 10 minutes and centrifuged at 3220 g, 4° C. for 30 minutes. After centrifugation, 100 μL of the supernatant was transferred into the loading plate and 150 μL of pure water was added and mixed uniformly for LC-MS/MS analysis.
(§6) All the data calculation was performed by the Microsoft Excel software. The peak area was detected by extracting the ion chromatogram. The in vitro half-life (t1/2) of the parent drug was detected by performing linear fitting of the natural logarithm of elimination percent of the parent drug and time.
(§7) The in vitro half-life (t1/2) was calculated by means of the slope:

in vitro [2] = conditions: mouse, hepatocytes
Text: as §2, §3, §4, §5, §6, §7

SDMA in Z-138 cells = assay: Inhibitory activity on SDMA in cells (immunofluorescent assay); type: cell-based; conditions: Homo sapiens, 48 h, 2 days, read-out: Inhibition of SDMA in cells IC50
Text: Materials and cells: Z-138 cells were purchased from ATCC (USA); IMDM medium and penicillin-streptomycin were purchased from Sigma PLC. (USA); horse serum was purchased from Hyclone (USA); Hoechst antibodies were purchased from Invitrogen (USA); Alexa Fluor 488 goat anti-rabbit IgG antibodies were purchased from Invitrogen (USA); Anti-dimethyl-Arginine symmetric (SYM11) antibodies were purchased from Merck & Co., Inc. (USA); DPBS was purchased from Gibco (USA); Nonfat Dry milk was purchased from Cell Signaling Technology (USA); paraformaldehyde was purchased from Beijing Solarbio Science & Technology Co., Ltd.; 384-well plate and Echo 550 Liquid Handler were purchased from Labcyte Inc. (USA); and an ImageXpress Nano was purchased from Molecular Devices (USA).
as §1
Immunofluorescent assay: The effects of the compounds on SDMA in Z-138 cells were detected by using immunofluorescence. The cells were adjusted to the concentration of 1*10^5/mL and 40 μL was inoculated in each well of the 384-well plate (4000/well) and equilibrated for 10-15 minutes at 37° C., 5% CO2. The compound was added into a 384-well plate by using the Echo 550 Liquid Handler with the final concentration of 0-300 nM (initial concentration: 300 nM, 3-fold dilution, for 10 points), and the DMSO content was 0.1%. The cell plate was placed at 37° C., 5% CO2 and incubated for 2 days. 40 μL of 8% paraformaldehyde was added into each well and incubated at room temperature for 30 minutes. The supernatant was discarded, the plate was washed with DPBS, and 40 μL of 0.5% PBST (phosphate buffer with Tween) was added into each well and incubated at room temperature for 60 minutes. The supernatant was discarded, the plate was washed with 0.05% PBST, and 40 μL of a blocking solution (1% Nonfat milk in 0.05% PBST) was added into each well and incubated at room temperature for 60 minutes. The supernatant was discarded, and 20 μL of the primary antibody (SYM11, diluted with a blocking solution at 1:500) was added into each well and maintained at 4° C. overnight. The supernatant was discarded, the plate was washed with 0.05% PBST, 20 μL of the secondary antibody (Alexa Fluor 488 goat anti-rabbit and Hoechst, diluted with a blocking solution at 1:1000 and 1:5000, respectively) was added to each well and incubated at room temperature for 60 minutes. The supernatant was discarded, the plate was washed with 0.05% PBST, and the fluorescent intensity was detected with ImageXpress Nano.

[3] = Hepatocellular metabolic stability test, mouse hepatocytes
Text: as §2, §3, §4, §5, §6, §7

PRMT5/MEP50 = target: T1, PRMT5/MEP50 (Homo sapiens, UniProt O14744); assay: PRMT5 enzymatic activity inhibition experiment (AlphaScreen); type: biochemical
T1 construct: purchased BPS Bioscience Inc. (USA)
Text: Materials: PRMT5/MEP50 proteins were purchased from BPS Bioscience Inc. (USA); Histone H4 Peptide substrate was purchased from Sangon Biotech (Shanghai) Co., Ltd.; Anti-Histone H4 (symmetric dimethyl R3) antibody—ChIP Grade was purchased from Abcam PLC. (USA); S-(5′-Adenosyl)-L-methionine chloride dihydrochloride was purchased from Sigma PLC. (USA); 384-well plate, AlphaScreen Streptavidin Donor beads, AlphaScreen Protein A Acceptor beads, and Envision 2104 multi-label Reader were purchased from Perkin-Elmer Instruments (USA) Corporation; and Echo 550 Liquid Handler was purchased from Labcyte Inc. (USA).
Enzymatic activity assay: The compounds were added into a 384-well plate by using the Echo 550 Liquid Handler with the final concentration of 0-1000 nM (initial concentration: 1000 nM, 3-fold dilution, for 10 points), and the DMSO content was 0.5%. 10 μL of a 2× PRMT5/MEP50 solution was added into each well and incubated at room temperature for 30 minutes. 10 μL of 2× PRMT5/MEP50 substrate solution was added to each well to start the reaction and incubated at room temperature for 60 minutes. A 6× detection reagent containing AlphaScreen Protein A Acceptor beads and Anti-Histone H4 (symmetric dimethyl R3) antibodies was prepared and 5 μL was added to each well. The plate was incubated at room temperature for 60 minutes. A 6× detection reagent containing AlphaScreen Streptavidin Donor beads was prepared and 5 μL was added to each well. The plate was incubated at room temperature for 60 minutes. The signal values were detected by using the Envision.

[4] = Hepatocellular metabolic stability test, human hepatocytes
Text: as §2, §3, §4, §5, §6, §7

[5] = PRMT5/MEP50, Histone H4 peptide substrate, read-out: Inhibition of enzymatic activity IC50

T1 sequence (O14744 2-637 limits assumed): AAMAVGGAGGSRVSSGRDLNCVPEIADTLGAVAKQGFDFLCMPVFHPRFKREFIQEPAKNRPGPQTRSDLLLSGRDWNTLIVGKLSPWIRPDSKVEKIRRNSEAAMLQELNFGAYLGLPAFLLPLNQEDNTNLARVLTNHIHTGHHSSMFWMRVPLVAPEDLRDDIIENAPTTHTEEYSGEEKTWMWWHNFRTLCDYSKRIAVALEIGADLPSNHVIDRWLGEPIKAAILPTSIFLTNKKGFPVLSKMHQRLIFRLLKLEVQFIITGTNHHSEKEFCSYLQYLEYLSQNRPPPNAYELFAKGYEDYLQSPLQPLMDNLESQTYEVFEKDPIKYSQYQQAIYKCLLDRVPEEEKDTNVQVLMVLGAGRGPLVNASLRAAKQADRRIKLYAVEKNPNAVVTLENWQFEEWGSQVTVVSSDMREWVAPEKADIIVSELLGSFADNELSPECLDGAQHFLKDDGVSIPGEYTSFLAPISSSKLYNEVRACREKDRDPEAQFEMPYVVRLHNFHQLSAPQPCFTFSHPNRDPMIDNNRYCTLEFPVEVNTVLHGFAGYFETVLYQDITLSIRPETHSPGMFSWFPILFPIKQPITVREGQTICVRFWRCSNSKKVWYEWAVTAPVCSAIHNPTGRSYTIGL
T1 sequence (Q9BQA1 2-342 partner limits assumed): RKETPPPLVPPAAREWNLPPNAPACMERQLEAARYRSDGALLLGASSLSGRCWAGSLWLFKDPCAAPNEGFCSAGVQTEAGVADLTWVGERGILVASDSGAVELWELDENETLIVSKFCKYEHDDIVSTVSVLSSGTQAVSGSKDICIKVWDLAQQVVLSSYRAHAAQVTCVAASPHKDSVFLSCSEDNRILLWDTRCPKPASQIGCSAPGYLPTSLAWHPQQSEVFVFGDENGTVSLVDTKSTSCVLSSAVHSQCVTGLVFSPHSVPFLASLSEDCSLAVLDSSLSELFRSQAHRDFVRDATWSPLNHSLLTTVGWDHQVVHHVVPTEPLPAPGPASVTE

| SMILES | IC50 (Z-138 cells) [nM] | half-life at 1 μM (in vitro [1]) [h] | half-life at 1 μM (in vitro [2]) [h] | IC50 (SDMA in Z-138 cells) [nM] | half-life at 1 μM [3] [h] | IC50 (PRMT5/MEP50) [nM] | half-life at 1 μM [4] [h] | IC50 (PRMT5/MEP50; [5]) [nM] |
| --- | --- | --- | --- | --- | --- | --- | --- | --- |
| CCN1CCN(C[C@@H](O)[C@@H]2Cc3ccccc3CN2)C(=O)c2ccc(C(=O)N3CCC4(CC3)CC(O)C4)cc21 [Compound 024, 1-ethyl-4-((R)-2-hydroxy-2-((S)-1,2,3,4-tetrahydroisoquinolin-3-yl)ethyl)-8-(2-hydroxy-7-azaspiro[3.5]nonane-7-carbonyl)-1,2,3,4-tetrahydro-5H-benzo[e][1,4]diazepin-5-one] | 10.6 | 12.9 | 0.588 | – | – | – | – | – |
| COC1CC2CCC(C1)N2C(=O)c1ccc2c(c1)N(C)CCN(C[C@@H](O)[C@@H]1Cc3ccccc3CN1)C2=O.Cl (stereo partly drawn) [Compound 005, 4-((R)-2-hydroxy-2-((S)-1,2,3,4-tetrahydroisoquinolin-3-yl)ethyl)-8-(3-methoxy-8-azabicyclo[3.2.1]octane-8-carbonyl)-1-methyl-1,2,3,4-tetrahydro-5H-benzo[e][1,4]diazepin-5-one hydrochloride] | 4.27 | – | – | 1.5 | 1.3 | 6.73 | 5.61 | – |
| COC1CC2CCC(C1)N2C(=O)c1ccc2c(c1)OCCN(C[C@@H](O)[C@@H]1Cc3ccccc3CN1)C2=O (stereo partly drawn) [Compound 008, 4-((R)-2-hydroxy-2-((S)-1,2,3,4-tetrahydroisoquinolin-3-yl)ethyl)-8-(3-methoxy-8-azabicyclo[3.2.1]octane-8-carbonyl)-3,4-dihydrobenzo[f][1,4]oxazepin-5(2H)-one] | 6.04 | – | – | – | – | – | – | 12.2 |
| CCN1CCN(C[C@@H](O)[C@@H]2Cc3ccccc3CN2)C(=O)c2ccc(C(=O)N3C4CCC3COC4)cc21.Cl [Compound 001, 8-(3-oxa-8-azabicyclo[3.2.1]octane-8-carbonyl)-1-ethyl-4-((R)-2-hydroxy-2-((S)-1,2,3,4-tetrahydroisoquinolin-3-yl)ethyl)-1,2,3,4-tetrahydro-5H-benzo[e][1,4]diazepin-5-one hydrochloride] | 3.47 | – | – | 3.8 | 2.04 | 4.56 | 24.5 | – |
| CCN1CCN(C[C@@H](O)[C@@H]2Cc3ccccc3CN2)C(=O)c2ccc(C(=O)N3CCC4(CC3)CC(C#N)C4)cc21 [Compound 003, 7-(1-ethyl-4-((R)-2-hydroxy-2-((S)-1,2,3,4-tetrahydroisoquinolin-3-yl)ethyl)-5-oxo-2,3,4,5-tetrahydro-1H-benzo[e][1,4]diazepine-8-carbonyl)-7-azaspiro[3.5]nonane-2-carbonitrile] | 1.21 | 131 | 1.97 | 0.8 | – | – | – | 2.02 |
| CCN1CCN(C[C@@H](O)[C@@H]2Cc3ccccc3CN2)C(=O)c2ccc(C(=O)N3C4CCC3CC(OC)C4)cc21.Cl (stereo partly drawn) [Compound 004, 1-ethyl-4-((R)-2-hydroxy-2-((S)-1,2,3,4-tetrahydroisoquinolin-3-yl)ethyl)-8-(3-methoxy-8-azabicyclo[3.2.1]octane-8-carbonyl)-1,2,3,4-tetrahydro-5H-benzo[e][1,4]diazepin-5-one hydrochloride] | 1.87 | – | – | 1.4 | 0.871 | 4.53 | 11.2 | – |
| CCN1CCN(C[C@@H](O)[C@@H]2Cc3ccccc3CN2)C(=O)c2ccc(C(=O)N3CCC4(CCC(OC)CC4)CC3)cc21 [Compound 006, 1-ethyl-4-((R)-2-hydroxy-2-((S)-1,2,3,4-tetrahydroisoquinolin-3-yl)ethyl)-8-(9-methoxy-3-azaspiro[5.5]undecane-3-carbonyl)-1,2,3,4-tetrahydro-5H-benzo[e][1,4]diazepin-5-one hydrochloride] | 4.8 | – | – | 1.8 | – | – | – | 3.62 |
| COC1CC2(CCN(C(=O)c3ccc4c(c3)OCCN(C[C@@H](O)[C@@H]3Cc5ccccc5CN3)C4=O)CC2)C1 [Compound 009, 4-((R)-2-hydroxy-2-((S)-1,2,3,4-tetrahydroisoquinolin-3-yl)ethyl)-8-(2-methoxy-7-azaspiro[3.5]nonane-7-carbonyl)-3,4-dihydrobenzo[f][1,4]oxazepin-5(2H)-one] | 2.97 | – | – | 6.1 | – | – | – | 4.96 |
